# Data reported in patent US4731109A, “Herbicidal 2-haloacetanilides” (Monsanto Company, priority 1982, dated 1988).
# Columns and labels:
# wild proso millet = assay: Greenhouse pre-emergence GR15/GR85 selectivity test; type: in vivo, wild proso millet (panicum milicaeum); conditions: Table XVI
# Excerpt: (§1) A good grade of top soil is placed in aluminum pans and compacted to a depth of three-eighths to one-half inch from the top of the pan. On the top of the soil is placed a number of seeds or vegetative propagules of various plant species. The soil required to level fill the pans after seeding or adding vegetative propagules is weighed into a pan. The soil and a known amount of the active ingredient applied in a solvent or as a wettable powder suspension are thoroughly mixed, and used to cover the prepared pans. […] As an alternative procedure, the overhead irrigation may be omitted. Observations are made about 2-3 weeks after seeding and treatment.
# (§2) A further guide to the effectiveness of a chemical as a selective herbicide is the "selectivity factor" ("SF") for a herbicide in given crops and weeds. The selectivity factor is a measure of the relative degree of crop safety and weed injury and is expressed in terms of the GR15 /GR85 ratio, i.e., the GR15 rate for the crop divided by the GR85 rate for the weed, both rates in kg/ha (lb/A). In the tables below, selectivity factors are shown in parenthesis following the GR85 rate for each weed; the symbol "NS" indicates "non-selective". Marginal or undetermined selectivity is indicated by a dash (--).
# (§3) Unless otherwise noted; greenhouse tests in Table VI and in other tables below involved herbicide treatments by soil incorporation and an initial overhead irrigation followed by subirrigation as described above.
# Quackgrass [1] = assay: Herbicidal effect in a variety of soil types; type: in vivo; conditions: Table XVII B; for selectivity factor (GR15/GR85): in soybeans
# rape = assay: Greenhouse pre-emergence GR15/GR85 selectivity test; type: in vivo; conditions: Table XV
# Excerpt: (§4) A good grade of top soil is placed in aluminum pans and compacted to a depth of three-eighths to one-half inch from the top of the pan. On the top of the soil is placed a number of seeds or vegetative propagules of various plant species. The soil required to level fill the pans after seeding or adding vegetative propagules is weighed into a pan. The soil and a known amount of the active ingredient applied in a solvent or as a wettable powder suspension are thoroughly mixed, and used to cover the prepared pans. After treatment, the pans are given an initial overhead irrigation of eater, equivalent to one-fourth inch (0.64 cm) rainfall, then watered by subirrigation as need to give adequate moisture for germination and growth. As an alternative procedure, the overhead irrigation may be omitted. Observations are made about 2-3 weeks after seeding and treatment.
# (§5) In the discussion and tables of data below, reference is made to herbicide application rates symbolized as "GR15 " and "GR85 "; these rates are given in kilograms per hectare (kg/ha) which are convertible into pounds per acre (lbs/A) by dividing the kg/ha rate by 1.12.
# as §2
# (§6) Additionally, pre-emergence herbicidal data from other tests have established that compounds according to this invention also selectively suppress quackgrass, yellow nutsedge and/or other weeds in one or more of the crops cotton, peanuts, bush beans and/or rape. For example, in Table VI are presented data showing the herbicidal selectivity of the compounds of Examples 1 and 2 against quackgrass in rape and snap beans. Unless otherwise noted; greenhouse tests in Table VI and in other tables below involved herbicide treatments by soil incorporation and an initial overhead irrigation followed by subirrigation as described above.
# In another greenhouse test, the compounds of Examples 3-5, 9 and 10 were tested for their herbicidal efficacy against a variety of resistant annual and perennial weeds in rape.
# seedling johnsongrass = assay: as above; type: in vivo; conditions: Table XVI
# Excerpt: as §1, §2, §3
# itchgrass = assay: as above; type: in vivo; conditions: Table XVI
# Excerpt: as §1, §2, §3
# red rice = assay: as above; type: in vivo; conditions: Table XVI
# Excerpt: as §1, §2, §3
# shattercane = assay: as above; type: in vivo; conditions: Table XVI
# Excerpt: as §1, §2, §3
# fall panicum = assay: as above; type: in vivo; conditions: Table XVI
# Excerpt: as §1, §2, §3
# alexandergrass = assay: as above; type: in vivo; conditions: Table XV; for selectivity factor (GR15/GR85): in rape
# Excerpt: as §1, §2, §3
# Texas panicum = assay: as above; type: in vivo; conditions: Table XVI
# Excerpt: as §1, §2, §3
# corn = assay: as above; type: in vivo
# Excerpt: as §4, §5, §2
# In Table IV pre-emergence herbicidal activity data are presented comparing the relative efficacy of the invention compounds and said prior art compounds as selective herbicides against the resistant and troublesome perennial weeds quackgrass and yellow nutsedge in soybeans and corn, respectively. These weeds are commonly associated with such major crops as corn and soybeans. The test data in Table IV were obtained under identical procedural conditions and represent two replicate runs (except for the compound of Example 9 which was present in one comparative test). The test procedure was the same as described for Tables II and III but modified by the application of an initial overhead irrigation equivalent to 1/4" (0.64 cm) rainfall; subsequent watering was accomplished by subirrigation. "NS" means non-selective within the test limits.
# as §6
# Quackgrass [2] = assay: as above; type: in vivo
# Excerpt: as §1, §2
# (§7) These weeds are commonly associated with such major crops as corn and soybeans. […] The test procedure was the same as described for Tables II and III but modified by the application of an initial overhead irrigation equivalent to 1/4" (0.64 cm) rainfall; subsequent watering was accomplished by subirrigation. "NS" means non-selective within the test limits.
# as §3
# Yellow Nutsedge = assay: as above; type: in vivo
# Excerpt: as §1, §2, §7, §3
smiles,measurement,setting,value
"CCCOCN(C(=O)CCl)c1c(C)cccc1C(F)(F)F [Example 3, N--(n-propoxymethyl)-2'-trifluoromethyl-6'-methyl-2-chloroacetanilide]",GR85 Rate,wild proso millet,0.27 Kg/Ha
same,selectivity factor (GR15/GR85),wild proso millet; in lima beans,1.8
same,selectivity factor (GR15/GR85),wild proso millet; in peanuts,> 4.2
same,GR85,Quackgrass [1]; Florida muck,1.1 Kg/Ha
same,GR85,Quackgrass [1]; Florida sand,0.72 Kg/Ha
same,GR85,Quackgrass [1]; Wabash silty clay,0.22 Kg/Ha
same,selectivity factor (GR15/GR85),Quackgrass [1]; Florida muck,> 2
same,selectivity factor (GR15/GR85),Quackgrass [1]; Florida sand,2.5
same,selectivity factor (GR15/GR85),Quackgrass [1]; Wabash silty clay,9
same,GR15 Rate,rape,0.90 Kg/Ha
same,GR85 Rate,seedling johnsongrass,0.23 Kg/Ha
same,selectivity factor (GR15/GR85),seedling johnsongrass; in lima beans,2.1
same,selectivity factor (GR15/GR85),seedling johnsongrass; in peanuts,> 4.9
same,GR85 Rate,itchgrass,0.51 Kg/Ha
same,selectivity factor (GR15/GR85),itchgrass; in lima beans,NS (non-selective)
same,selectivity factor (GR15/GR85),itchgrass; in peanuts,> 2.2
same,GR85 Rate,red rice,0.37 Kg/Ha
same,selectivity factor (GR15/GR85),red rice; in lima beans,1.3
same,selectivity factor (GR15/GR85),red rice; in peanuts,> 3
same,GR85 Rate,shattercane,0.11 Kg/Ha
same,selectivity factor (GR15/GR85),shattercane; in lima beans,4.5
same,selectivity factor (GR15/GR85),shattercane; in peanuts,> 10.2
same,GR85 Rate,fall panicum,0.08 Kg/Ha
same,selectivity factor (GR15/GR85),fall panicum; in lima beans,6
same,selectivity factor (GR15/GR85),fall panicum; in peanuts,> 14
same,GR85 Rate,alexandergrass,0.14 Kg/Ha
same,selectivity factor (GR15/GR85),alexandergrass,6.3
same,GR85 Rate,Texas panicum,0.43 Kg/Ha
same,selectivity factor (GR15/GR85),Texas panicum; in lima beans,1.1
same,selectivity factor (GR15/GR85),Texas panicum; in peanuts,> 2.6
same,GR15,"corn; Table IV, Replicate #1",0.78 Kg/Ha
same,GR15,"corn; Table IV, Replicate #2",0.73 Kg/Ha
same,GR85,"Quackgrass [2]; Table IV, Replicate #1",0.12 Kg/Ha
same,GR85,"Quackgrass [2]; Table IV, Replicate #2",0.13 Kg/Ha
same,selectivity factor (GR15/GR85),"Quackgrass [2]; quackgrass in corn, Table IV, Replicate #1",6.5
same,selectivity factor (GR15/GR85),"Quackgrass [2]; quackgrass in corn, Table IV, Replicate #2",5.5
same,selectivity factor (GR15/GR85),"Quackgrass [2]; quackgrass in soybeans, Table IV, Replicate #1",9
same,selectivity factor (GR15/GR85),"Quackgrass [2]; quackgrass in soybeans, Table IV, Replicate #2",8.5
same,GR85,"Yellow Nutsedge; Table IV, Replicate #1",0.11 Kg/Ha
same,GR85,"Yellow Nutsedge; Table IV, Replicate #2",0.21 Kg/Ha
same,selectivity factor (GR15/GR85),"Yellow Nutsedge; yellow nutsedge in corn, Table IV, Replicate #1",7
same,selectivity factor (GR15/GR85),"Yellow Nutsedge; yellow nutsedge in corn, Table IV, Replicate #2",3.5
same,selectivity factor (GR15/GR85),"Yellow Nutsedge; yellow nutsedge in soybeans, Table IV, Replicate #1",10
same,selectivity factor (GR15/GR85),"Yellow Nutsedge; yellow nutsedge in soybeans, Table IV, Replicate #2",5
"Cc1cccc(C(F)(F)F)c1N(COCC(C)C)C(=O)CCl [Example 5, N--(isobutoxymethyl)-2'-trifluoromethyl-6'-methyl-2-chloroacetanilide]",GR85 Rate,wild proso millet,0.56 Kg/Ha
same,selectivity factor (GR15/GR85),wild proso millet; in lima beans,> 2
same,selectivity factor (GR15/GR85),wild proso millet; in peanuts,1
same,GR85,Quackgrass [1]; Drummer silty clay,1.1 Kg/Ha
same,GR85,Quackgrass [1]; Florida muck,3.0 Kg/Ha
same,GR85,Quackgrass [1]; Florida sand,1.1 Kg/Ha
same,GR85,Quackgrass [1]; Ray silt loam,> 2.2 Kg/Ha
same,GR85,Quackgrass [1]; Sarpy silty clay,1.6 Kg/Ha
same,GR85,Quackgrass [1]; Wabash silty clay,1.6 Kg/Ha
same,selectivity factor (GR15/GR85),Quackgrass [1]; Drummer silty clay,2
same,selectivity factor (GR15/GR85),Quackgrass [1]; Florida sand,3
same,selectivity factor (GR15/GR85),Quackgrass [1]; Ray silt loam,NS (non-selective)
same,selectivity factor (GR15/GR85),Quackgrass [1]; Sarpy silty clay,2
same,selectivity factor (GR15/GR85),Quackgrass [1]; Wabash silty clay,1.5
same,GR15 Rate,rape,> 1.12 Kg/Ha
same,GR85 Rate,seedling johnsongrass,0.37 Kg/Ha
same,selectivity factor (GR15/GR85),seedling johnsongrass; in lima beans,> 3
same,selectivity factor (GR15/GR85),seedling johnsongrass; in peanuts,1.5
same,GR85 Rate,itchgrass,0.56 Kg/Ha
same,selectivity factor (GR15/GR85),itchgrass; in lima beans,> 2
same,selectivity factor (GR15/GR85),itchgrass; in peanuts,1
same,GR85 Rate,red rice,0.53 Kg/Ha
same,selectivity factor (GR15/GR85),red rice; in lima beans,> 2.1
same,selectivity factor (GR15/GR85),red rice; in peanuts,1.1
same,GR85 Rate,shattercane,0.56 Kg/Ha
same,selectivity factor (GR15/GR85),shattercane; in lima beans,> 2
same,selectivity factor (GR15/GR85),shattercane; in peanuts,1
same,GR85 Rate,fall panicum,0.28 Kg/Ha
same,selectivity factor (GR15/GR85),fall panicum; in lima beans,> 4
same,selectivity factor (GR15/GR85),fall panicum; in peanuts,2
same,GR85 Rate,alexandergrass,0.7 Kg/Ha
same,selectivity factor (GR15/GR85),alexandergrass,> 1.6
same,GR85 Rate,Texas panicum,0.53 Kg/Ha
same,selectivity factor (GR15/GR85),Texas panicum; in lima beans,> 2.1
same,selectivity factor (GR15/GR85),Texas panicum; in peanuts,1.1
"CCCOCN(C(=O)CCl)c1c(CC)cccc1C(F)(F)F [Example 10, N--(n-propoxymethyl)-2'-trifluoromethyl-6'-ethyl-2-chloroacetanilide]",GR85 Rate,wild proso millet,0.80 Kg/Ha
same,selectivity factor (GR15/GR85),wild proso millet; in lima beans,> 1.4
same,selectivity factor (GR15/GR85),wild proso millet; in peanuts,1.2
same,GR15 Rate,rape,> 1.12 Kg/Ha
same,GR85 Rate,seedling johnsongrass,0.36 Kg/Ha
same,selectivity factor (GR15/GR85),seedling johnsongrass; in lima beans,> 3.1
same,selectivity factor (GR15/GR85),seedling johnsongrass; in peanuts,2.7
same,GR85 Rate,itchgrass,0.90 Kg/Ha
same,selectivity factor (GR15/GR85),itchgrass; in lima beans,> 1.2
same,selectivity factor (GR15/GR85),itchgrass; in peanuts,1.1
same,GR85 Rate,red rice,0.98 Kg/Ha
same,selectivity factor (GR15/GR85),red rice; in lima beans,> 1.1
same,selectivity factor (GR15/GR85),red rice; in peanuts,1
same,GR85 Rate,shattercane,0.56 Kg/Ha
same,selectivity factor (GR15/GR85),shattercane; in lima beans,> 2
same,selectivity factor (GR15/GR85),shattercane; in peanuts,1.8
same,GR85 Rate,fall panicum,0.22 Kg/Ha
same,selectivity factor (GR15/GR85),fall panicum; in lima beans,> 5.1
same,selectivity factor (GR15/GR85),fall panicum; in peanuts,4.5
same,GR85 Rate,alexandergrass,0.36 Kg/Ha
same,selectivity factor (GR15/GR85),alexandergrass,> 3.1
same,GR85 Rate,Texas panicum,1.1 Kg/Ha
same,selectivity factor (GR15/GR85),Texas panicum; in lima beans,> 1
same,selectivity factor (GR15/GR85),Texas panicum; in peanuts,NS (non-selective)
same,GR15,corn; Table XII,1.7 Kg/Ha
same,GR15,corn; Table XIII,2.5 Kg/Ha
same,GR85,Quackgrass [2]; Table XIII,0.45 Kg/Ha
same,selectivity against quackgrass in wheat,Quackgrass [2]; in wheat,non-selective
same,selectivity factor (GR15/GR85),"Quackgrass [2]; quackgrass in corn, Table XIII",5.6
same,selectivity factor (GR15/GR85),"Quackgrass [2]; quackgrass in soybeans, Table XIII",3.3
same,GR85,Yellow Nutsedge; Table XII,0.38 Kg/Ha
same,selectivity with respect to yellow nutsedge in rice,Yellow Nutsedge; in rice,non-selective
same,selectivity factor (GR15/GR85),"Yellow Nutsedge; yellow nutsedge in corn, Table XII",4.5
same,selectivity factor (GR15/GR85),"Yellow Nutsedge; yellow nutsedge in cotton, Table XII",7.4
same,selectivity factor (GR15/GR85),"Yellow Nutsedge; yellow nutsedge in soybeans, Table XII",5.8
